Results: PubChem BioAssay AID328 (DTP/NCI, 2004)
Values joined by “and” are separate entries in the source; they are usually repeats but may differ in a detail not shown here. Equal values may be shown once. Toxic doses and inconclusive results are not listed.

Tested on: BDF1 mice, P388 leukemia ip, median survival T/C
Experiment: NCI In Vivo Anticancer Drug Screen. Data for tumor model P388 Leukemia (intraperitoneal) in B6D2F1 (BDF1) mice
Settings: endpoint: median survival time, higher = longer survival
Procedure, shortened: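 Read-out is survival of treated animals expressed relative to the vehicle group, as a T/C ratio.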

[1] = dose: 100.0 mg/kg/injection, schedule: Q04DX003 (ip), vehicle: saline
[2] = dose: 50.0 mg/kg/injection, schedule: Q01DX009 (ip), vehicle: saline with Tween-80
[3] = dose: 200.0 mg/kg/injection, schedule: Q01DX009 (ip), vehicle: saline with Tween-80
[4] = dose: 100.0 mg/kg/injection, schedule: Q01DX009 (ip), vehicle: Klucel (hydroxypropylcellulose) (HPC)
[5] = dose: 100.0 mg/kg/injection, schedule: Q01DX009 (ip), vehicle: saline with Tween-80
[6] = dose: 12.5 mg/kg/injection, schedule: Q01DX009 (ip), vehicle: saline with Tween-80
[7] = dose: 25.0 mg/kg/injection, schedule: Q01DX009 (ip), vehicle: saline with Tween-80

Structure (SMILES): O=C(O)c1ccc(N2C(=O)c3ccccc3C2=O)cc1[N+](=O)[O-]
- T/C (dose: 50.0 mg/kg/injection, schedule: Q01DX009 (ip), vehicle: saline): 106 % of control
- T/C (dose: 100.0 mg/kg/injection, schedule: Q01DX009 (ip), vehicle: saline): 107 % of control
- T/C [1]: 99 % of control
- T/C (dose: 200.0 mg/kg/injection, schedule: Q01DX009 (ip), vehicle: saline): 111 % of control
- T/C (dose: 200.0 mg/kg/injection, schedule: Q04DX003 (ip), vehicle: saline): 105 % of control
- T/C (dose: 400.0 mg/kg/injection, schedule: Q04DX003 (ip), vehicle: saline): 99 % of control

Structure (SMILES): CCCCCCCCCCCC(=O)Oc1c(Cl)c(Cl)c(C#N)c(Cl)c1Cl
- T/C [2]: 94 % of control
- T/C [3]: 86 % of control

Structure (SMILES): OCC1OC(n2cnc3c(NO)ncnc32)C(O)C1O (configuration not stated)
- T/C (dose: 12.5 mg/kg/injection, schedule: Q01DX009 (ip), vehicle: Klucel (hydroxypropylcellulose) (HPC)): 108 % of control
- T/C [4]: 108 % of control

Structure (SMILES): CC(=O)C(C(C)=O)c1cc(NS(=O)(=O)c2ccccc2)ccc1O
- T/C (dose: 100.0 mg/kg/injection, schedule: Q01DX001 (ip), vehicle: saline with Tween-80): 104 % of control
- T/C (dose: 200.0 mg/kg/injection, schedule: Q01DX001 (ip), vehicle: saline with Tween-80): 100 % of control
- T/C (dose: 400.0 mg/kg/injection, schedule: Q01DX001 (ip), vehicle: saline with Tween-80): 95 % of control

Structure (SMILES): O=P(N1CCCC1)(N1CC1)N1CC1
- T/C (dose: 0.74 mg/kg/injection, schedule: Q01DX009 (ip), vehicle: saline): 89 % of control
- T/C (dose: 1.11 mg/kg/injection, schedule: Q01DX009 (ip), vehicle: saline): 98 % of control
- T/C (dose: 1.67 mg/kg/injection, schedule: Q01DX009 (ip), vehicle: saline): 121 % of control
- T/C (dose: 2.2 mg/kg/injection, schedule: Q01DX009 (ip), vehicle: saline): 205 % of control
- T/C (dose: 2.2 mg/kg/injection, schedule: Q04DX003 (ip), vehicle: saline): 113 % of control
- T/C (dose: 2.5 mg/kg/injection, schedule: Q01DX009 (ip), vehicle: saline): 180 % of control
- T/C (dose: 3.3 mg/kg/injection, schedule: Q01DX009 (ip), vehicle: saline): 255 % of control
- T/C (dose: 5.0 mg/kg/injection, schedule: Q01DX009 (ip), vehicle: saline): 268 % of control and 317 % of control
- T/C (dose: 5.56 mg/kg/injection, schedule: Q04DX003 (ip), vehicle: saline): 150 % of control
- T/C (dose: 7.5 mg/kg/injection, schedule: Q01DX009 (ip), vehicle: saline): 112 % of control
- T/C (dose: 7.5 mg/kg/injection, schedule: Q04DX003 (ip), vehicle: saline): 182 % of control
- T/C (dose: 8.33 mg/kg/injection, schedule: Q04DX003 (ip), vehicle: saline): 204 % of control
- T/C (dose: 12.5 mg/kg/injection, schedule: Q04DX003 (ip), vehicle: saline): 240 % of control and 250 % of control
- T/C (dose: 18.7 mg/kg/injection, schedule: Q04DX003 (ip), vehicle: saline): 272 % of control

Structure (SMILES): CC(C)CN1CCOCC1
- T/C (dose: 25.0 mg/kg/injection, schedule: Q04DX003 (ip), vehicle: saline): 95 % of control
- T/C (dose: 50.0 mg/kg/injection, schedule: Q04DX003 (ip), vehicle: saline): 108 % of control
- T/C [1]: 95 % of control

Structure (SMILES): C=C1CCC2C1C1C(C(C)C)CCC21C (configuration not stated)
- T/C [2]: 105 % of control
- T/C [5]: 104 % of control

Structure (SMILES): C[P+]1(C)CCc2c1ccc1ccccc21
- T/C [6]: 104 % of control
- T/C [7]: 100 % of control
- T/C [2]: 104 % of control

Structure (SMILES): CN(C(=O)c1ccccc1)N(C)C(=O)c1ccccc1
- T/C (dose: 12.5 mg/kg/injection, schedule: Q04DX003 (ip), vehicle: Klucel (hydroxypropylcellulose) (HPC)): 90 % of control
- T/C (dose: 25.0 mg/kg/injection, schedule: Q04DX003 (ip), vehicle: Klucel (hydroxypropylcellulose) (HPC)): 109 % of control
- T/C (dose: 50.0 mg/kg/injection, schedule: Q04DX003 (ip), vehicle: Klucel (hydroxypropylcellulose) (HPC)): 100 % of control

Structure (SMILES): O=C(Cl)C1=C(c2ccccc2)C1c1ccccc1 (configuration not stated)
- T/C [2]: 102 % of control
- T/C [5]: 101 % of control

Structure (SMILES): O=C(O)C(=O)O.[U]
- T/C (dose: 25.0 mg/kg/injection, schedule: Q04DX003 (ip), vehicle: saline with Tween-80): 100 % of control

Structure (SMILES): C=C1C(O)C2(O)OCC34C(CC5C(C)=CC(=O)C(O)C5(C)C23)OC(=O)C(O)C14 (configuration not stated)
- T/C (dose: 0.06 mg/kg/injection, schedule: Q01DX009 (ip), vehicle: saline): 95 % of control
- T/C (dose: 0.25 mg/kg/injection, schedule: Q01DX009 (ip), vehicle: saline): 106 % of control
- T/C (dose: 1.0 mg/kg/injection, schedule: Q01DX009 (ip), vehicle: saline): 98 % of control

Structure (SMILES): Clc1ccc(COC(Cn2ccnc2)c2ccc(Cl)cc2Cl)c(Cl)c1 (configuration not stated)
- T/C (dose: 18.7 mg/kg/injection, schedule: Q01DX009 (ip), vehicle: saline with Tween-80): 118 % of control
- T/C (dose: 75.0 mg/kg/injection, schedule: Q01DX009 (ip), vehicle: saline with Tween-80): 118 % of control
- T/C [3]: 108 % of control
- T/C (dose: 400.0 mg/kg/injection, schedule: Q01DX009 (ip), vehicle: saline with Tween-80): 108 % of control

Structure (SMILES): C[CH2][Sn]([CH2]C)([CH2]C)[NH]S(=O)(=O)c1ccc(C)cc1
- T/C (dose: 0.39 mg/kg/injection, schedule: Q01DX009 (ip), vehicle: Klucel (hydroxypropylcellulose) (HPC)): 100 % of control
- T/C (dose: 0.78 mg/kg/injection, schedule: Q01DX009 (ip), vehicle: Klucel (hydroxypropylcellulose) (HPC)): 115 % of control
- T/C (dose: 3.12 mg/kg/injection, schedule: Q01DX001 (ip), vehicle: Klucel (hydroxypropylcellulose) (HPC)): 100 % of control
- T/C (dose: 6.25 mg/kg/injection, schedule: Q01DX001 (ip), vehicle: Klucel (hydroxypropylcellulose) (HPC)): 90 % of control
- T/C (dose: 12.5 mg/kg/injection, schedule: Q01DX001 (ip), vehicle: Klucel (hydroxypropylcellulose) (HPC)): 90 % of control
- T/C (dose: 18.0 mg/kg/injection, schedule: Q01DX001 (ip), vehicle: Klucel (hydroxypropylcellulose) (HPC)): 104 % of control

Structure (SMILES): CC1CCCC[N-]1.CC1CCCC[N-]1.[Cl][Pt+2][Cl] (configuration not stated)
- T/C (dose: 50.0 mg/kg/injection, schedule: Q01DX009 (ip), vehicle: Klucel (hydroxypropylcellulose) (HPC)): 103 % of control
- T/C [4]: 97 % of control

Structure (SMILES): CCC12CCC(=O)NC1Cc1[nH]c3c(OC)cccc3c1C2 (configuration not stated)
- T/C (dose: 100.0 mg/kg/injection, schedule: Q04DX003 (ip), vehicle: saline sonified): 100 % of control
- T/C (dose: 200.0 mg/kg/injection, schedule: Q04DX003 (ip), vehicle: saline sonified): 100 % of control
- T/C (dose: 400.0 mg/kg/injection, schedule: Q04DX003 (ip), vehicle: saline sonified): 109 % of control

Structure (SMILES): Cc1cc2c(c3ncccc13)OCN(Cc1ccc(Cl)cc1)C2
- T/C [6]: 104 % of control
- T/C [7]: 100 % of control
- T/C [2]: 91 % of control
